Experiments:
[1] = target: T1, hCG protein (Homo sapiens, UniProt P01215+P0DN86); assay: SPR kinetics of peptide-hCG binding, carboxyl-GO chip, clinical serum samples
[2] = target: T1, hCG protein; assay: SPR kinetics of peptide-hCG binding, GO-based chip, PBS buffer; settings: hCG 10 pM-1 nM, 30 μL/min, 1:1 Langmuir model
[3] = system: peptide probe immobilized on carboxyl-GO chip; assay: SPR selectivity test with interfering proteins, spiked 10% serum; format: binding; settings: protein 500 pM, 60 μL/min, measured six times
[4] = system: peptide probe immobilized on carboxyl-GO chip; assay: SPR selectivity test with interfering proteins, PBS buffer; format: binding; settings: for interference signal: 500 pM, carboxyl-GO-based SPR aptasensor, PBS and spiked 10% serum; for average SPR angle shift: protein 500 pM, PBS buffer, 60 μL/min, measured six times

T1 sequence (P01215 25-116, other chains not shown): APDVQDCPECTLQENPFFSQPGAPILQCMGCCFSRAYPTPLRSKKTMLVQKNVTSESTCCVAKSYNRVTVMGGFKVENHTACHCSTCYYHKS

H-PPLRINRHILTR-OH [peptide]
binding constant KA ([1]; serum FDSW-1, 19 weeks): 7.22e+10 M⁻¹ | binding constant KA ([1]; serum FDSW-2, 14 weeks): 9.39e+10 M⁻¹ | binding constant KA ([1]; serum FDSW-3, 12 weeks): 2.033e+11 M⁻¹ | binding constant KA ([1]; serum FDSW-4, 12 weeks): 5.71e+10 M⁻¹ | binding constant KA ([1]; serum FDSW-5, 16 weeks): 5.14e+10 M⁻¹ | binding constant KA ([1]; serum FDSW-6, 17 weeks): 1.39e+11 M⁻¹ | binding constant KA ([1]; serum NPW-1, 15 weeks): 2.819e+11 M⁻¹ | binding constant KA ([1]; serum NPW-2, 12 weeks): 2.763e+11 M⁻¹ | binding constant KA ([1]; serum NPW-3, 14 weeks): 1.28e+10 M⁻¹ | binding constant KA ([1]; serum NPW-4, 17 weeks): 1.48e+10 M⁻¹ | KA [2]: 1.41e+10 M⁻¹ | ka [2]: 7.32 ×10^6 M^−1S^−1 | kd [2]: 5.22 ×10^−4 S^−1

bovine serum albumin [BSA]
average SPR angle shift [3]: 2.60 m^o | interference signal [4]: close to that of a blank solution | average SPR angle shift [4]: 1.31 m^o

pregnancy-associated plasma protein A2 [PAPP-A2]
average SPR angle shift [3]: 2.51 m^o | interference signal [4]: close to that of a blank solution | average SPR angle shift [4]: 2.39 m^o

pregnancy-associated plasma protein A [PAPP-A]
average SPR angle shift [3]: 2.42 m^o | interference signal [4]: close to that of a blank solution | average SPR angle shift [4]: 1.37 m^o

B1: human cytokeratin 19 (protein, UniProt P08727 1-400, looked up)
Keratin, type I cytoskeletal …: MTSYSYRQSSATSSFGGLGGGSVRFGPGVAFRAPSIHGGSGGRGVSVSSARFVSSSSSGAYGGGYGGVLTASDGLLAGNEKLTMQNLNDRLASYLDKVRALEAANGELEVKIRDWYQKQGPGPSRDYSHYYTTIQDLRDKILGATIENSRIVLQIDNARLAADDFRTKFETEQALRMSVEADINGLRRVLDELTLARTDLEMQIEGLKEELAYLKKNHEEEISTLRGQVGGQVSVEVDSAPGTDLAKILSDMRSQYEVMAEQNRKDAEAWFTSRTEELNREVAGHTEQLQMSRSEVTDLRRTLQGLEIELQSQLSMKAALEDTLAETEARFGAQLAHIQALISGIEAQLGDVRADSERQNQEYQRLMDIKSRLEQEIATYRSLLEGQEDHYNNLSASKVL
average SPR angle shift [3]: 1.74 m^o | interference signal [4]: close to that of a blank solution | average SPR angle shift [4]: 1.65 m^o
